This note sets out measurements from patent US10752587B2, “Homobispiperidinyl derivatives as liver X receptor beta agonists, compositions and their use” (Merck Sharp & Dohme Corp., priority 2015, dated 2020).

The structures appear in SMILES notation. Read-outs that look alike come from different tables or passages of the source.

Experiment [1] concerns the target T1, glutathione-S-transferase (GST) tagged LXRbeta LBD (ligand binding domain) (Homo sapiens, UniProt P55055).
T1 construct: purchased Invitrogen pv4658.pps
T1 sequence (P55055 222-460 limits assumed): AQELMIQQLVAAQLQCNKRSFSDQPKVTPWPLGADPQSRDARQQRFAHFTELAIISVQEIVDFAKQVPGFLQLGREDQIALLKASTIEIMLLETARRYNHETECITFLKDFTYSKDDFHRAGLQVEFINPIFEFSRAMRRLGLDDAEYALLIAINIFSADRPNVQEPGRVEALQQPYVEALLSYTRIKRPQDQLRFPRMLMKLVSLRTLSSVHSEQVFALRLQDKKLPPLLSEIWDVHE
The experiment in a line: LanthaScreen TR-FRET Liver X Receptor Coactivator Assay, co-activator recruitment to LXRbeta LBD. It counts as biochemical. An outline of the steps: (§1)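 TR-FRET coactivator recruitment; compound + LBD, then fluorescein-coactivator peptide/Tb-anti-GST Ab mix; RT incubation; IP and Emax vs T0901317.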
Background: TR-FRET usually uses a lanthanide donor and a delayed reading to cut background.

Experiment [2] addresses T2, glutathione-S-transferase (GST) tagged LXRalpha LBD (ligand binding domain) (Homo sapiens, UniProt Q13133).
T2 construct: purchased Invitrogen pv4655
T2 sequence (Q13133 209-447 limits assumed): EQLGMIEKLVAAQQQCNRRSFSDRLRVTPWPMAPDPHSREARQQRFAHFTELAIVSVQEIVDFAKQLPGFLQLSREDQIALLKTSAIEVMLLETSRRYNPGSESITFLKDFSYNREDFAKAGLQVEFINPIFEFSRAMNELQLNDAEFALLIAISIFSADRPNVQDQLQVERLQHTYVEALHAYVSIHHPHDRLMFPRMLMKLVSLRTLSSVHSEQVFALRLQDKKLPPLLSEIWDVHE
The experiment in a line: LanthaScreen TR-FRET Liver X Receptor Coactivator Assay, co-activator recruitment to LXRalpha LBD. It counts as biochemical. The gist of the method:
as §1

[3] abbreviates: efficacy at max dose, in relation to reference dual agonist T0901317, read-out: LXR beta Activity @ max dose (%).
[4] abbreviates: potency (Inflection Point, IP), co-activator recruitment to LXRbeta LBD, in relation to T0901317, read-out: LXR beta IP.
Where [5] appears, read: efficacy at max dose, in relation to reference dual agonist T0901317, read-out: LXR alpha Activity @ max dose (%).
Setting [6] is: potency (Inflection Point, IP), co-activator recruitment to LXRalpha LBD, in relation to T0901317, read-out: LXR alpha IP.
[7] abbreviates: potency (Inflection Point, IP), co-activator recruitment to LXRalpha LBD, in relation to T0901317.
Setting [8] is: co-activator recruitment to GST-LXRbeta LBD, TR-FRET, read-out: LXR beta IP (Inflection Point, potency).
The mark [9] stands for this setting: efficacy in relation to reference dual agonist T0901317, read-out: LXR beta Activity @ max dose.
Setting [10] is: co-activator recruitment to GST-LXRalpha LBD, TR-FRET.
Setting [11] is: efficacy in relation to reference dual agonist T0901317, read-out: LXR alpha Activity @ max dose.

Consider `CN(C)C(=O)c1ccc(N2CCC(CC3CCN(C(=O)[C@](N)(c4cc(Cl)cc(Cl)c4)C(F)(F)F)CC3)CC2)cc1Cl` [Example 2-117, 4-[4-({1-[(2R)-2-amino-2-(3,5-dichloro-phenyl)-3,3,3-trifluoro-propanoyl]piperidin-4-yl}methyl)piperidin-1-yl]-2-chloro-N,N-dimethyl-benzamide], for which the figures for the Emax in experiment [1] (setting [3]) and in experiment [2] (setting [5]) were 125% and 29%, respectively. For the same compound, the EC50 in experiment [1] (setting [4]) was determined as 22 nM; in experiment [2] (setting [6]), 1010 nM.
Take `Cc1cccc(C(O)(C(=O)N2CCC(CC3CCN(c4ccc(C(=O)N(C)C)c(C)n4)CC3)CC2)C(F)(F)F)c1` (stereo not shown) [Example 7-6, N,N,2-trimethyl-6-[4-({1-[3,3,3-trifluoro-2-hydroxy-2-(3-methylphenyl)propanoyl]piperidin-4-yl}methyl)piperidin-1-yl]pyridine-3-carboxamide]: the Emax worked out at 70% in experiment [1] (setting [3]) and 11% in experiment [2] (setting [5]). Also, in experiment [1] (setting [4]), the EC50 was determined as 46 nM. Moreover, the “LXR alpha IP (nM)” value in experiment [2] (setting [7]) was “NO IP”.
Turning to `CN(Cc1ccon1)C(=O)c1ccc(N2CCC(CC3CCN(C(=O)[C@](O)(c4ccccc4)C(F)(F)F)CC3)CC2)cc1Cl` [Example 4-10, 2-chloro-N-(isoxazol-3-ylmethyl)-N-methyl-4-[4-({1-[(2R)-3,3,3-trifluoro-2-hydroxy-2-phenylpropanoyl]piperidin-4-yl}methyl)piperidin-1-yl]benzamide], the Emax in experiment [1] (setting [3]) came out at 62%; in experiment [2] (setting [5]), 30%. Besides, the results for the EC50 in experiment [1] (setting [4]) and in experiment [2] (setting [6]) were 8 nM and 246 nM, respectively.
`CC(C)Oc1cccc(C(O)(C(=O)N2CCC(CC3CCN(c4ccc(C(=O)N(C)C)c(Cl)n4)CC3)CC2)C(F)(F)F)c1` (stereo not shown) [Example 7-76, 2-chloro-N,N-dimethyl-6-{4-[(1-{3,3,3-trifluoro-2-hydroxy-2-[3-(1-methylethoxy)phenyl]propanoyl}piperidin-4-yl)methyl]piperidin-1-yl}pyridine-3-carboxamide]: the values for the Emax in experiment [1] (setting [3]) and in experiment [2] (setting [5]) were 56% and 10%, respectively. For the same compound, the EC50 in experiment [1] (setting [4]) came to 10 nM. Moreover, the “LXR alpha IP (nM)” value in experiment [2] (setting [7]) is “NO IP”.
The like results for `COc1cc(Cl)cc([C@@](O)(C(=O)N2CCC(C)(CC3CCN(c4ccc(C(=O)N(C)C)c(Cl)c4)CC3)CC2)C(F)(F)F)c1` [Example 2-48, 2-chloro-4-[4-({1-[(2R)-2-(3-chloro-5-methoxyphenyl)-3,3,3-trifluoro-2-hydroxy-propanoyl]-4-methyl-piperidin-4-yl}methyl)piperidin-1-yl]-N,N-dimethyl-benzamide] were, in that order, 30%, 0%, 27 nM and “NO IP”.
The like results for `COc1cccc([C@@](O)(C(=O)N2CCC(CC3CCN(c4ccc(C(=O)N(C)C)c(Cl)c4)CC3)CC2)C(F)(F)F)c1` [Example 2-35, 2-chloro-N,N-dimethyl-4-[4-({1-[(2R)-3,3,3-trifluoro-2-hydroxy-2-(3-methoxyphenyl)propanoyl]piperidin-4-yl}methyl)piperidin-1-yl]benzamide] were, in that order, 44%, 6%, 8 nM and “NO IP”.
Regarding `CCC(O)(C(=O)N1CCC(CC2CCN(c3ccc(C(=O)N(C)C)c(Cl)c3)CC2)CC1)c1ccccc1` (stereo not shown) [Example 2-32, 2-chloro-4-(4-{[1-(2-hydroxy-2-phenyl-butanoyl)piperidin-4-yl]methyl}piperidin-1-yl)-N,N-dimethyl-benzamide], the Emax in experiment [1] (setting [3]) is 55%; in experiment [2] (setting [5]), 19%. Also, the EC50 is 72 nM in experiment [1] (setting [4]) and 1420 nM in experiment [2] (setting [6]).
As to `COc1cccc([C@@](O)(C(=O)N2CCC(CC3CCN(c4ccc(C(=O)N(C)C)c(C)c4)CC3)CC2)C(F)(F)F)c1` [Example 2-158, N,N,2-trimethyl-4-[4-({1-[(2R)-3,3,3-trifluoro-2-hydroxy-2-(3-methoxyphenyl)propanoyl]piperidin-4-yl}methyl)piperidin-1-yl]benzamide], the Emax in experiment [1] (setting [3]) came out at 44%; in experiment [2] (setting [5]), 6%. For the same compound, in experiment [1] (setting [4]), the EC50 is 20 nM. Further, the “LXR alpha IP (nM)” value in experiment [2] (setting [7]) is “NO IP”.
`CNC(=O)c1ccc(N2CCC(CC3CCN(C(=O)C(O)(c4cccc(C(F)(F)F)c4)C(F)(F)F)CC3)CC2)cc1Cl` (stereo not shown) [Example 7-35, 2-chloro-N-methyl-4-{4-[(1-{3,3,3-trifluoro-2-hydroxy-2-[3-(trifluoromethyl)phenyl]propanoyl}piperidin-4-yl)methyl]piperidin-1-yl}benzamide]: the Emax turned out to be 78% in experiment [1] (setting [3]) and 25% in experiment [2] (setting [5]). Besides, the EC50 in experiment [1] (setting [4]) stood at 96 nM; in experiment [2] (setting [6]), 784 nM.
Compound `CN(C)C(=O)c1ccc(N2CCC(CC3CCN(C(=O)C(O)(c4ccccn4)C4CC4)CC3)CC2)cc1Cl` (stereo not shown) [Example 2-118, 2-chloro-4-[4-({1-[cyclopropyl (hydroxy)pyridin-2-ylacetyl]piperidin-4-yl}methyl)piperidin-1-yl]-N,N-dimethyl-benzamide] registered an EC50 in experiment [1] (LXR beta IP (nM), potency (Inflection Point, IP), co-activator recruitment to LXRbeta LBD, in relation to T0901317) of 219 nM. Moreover, the Emax in experiment [1] (read-out: LXR beta Activity @ max dose (%)) amounted to 68%; in experiment [2] (read-out: LXR alpha Activity @ max dose (%)), 11%. The “LXR alpha IP (nM)” value in experiment [2] (setting [7]) is on record as “NO IP”.
In the case of `Cc1cc(N2CCC(CC3CCN(C(=O)[C@](O)(c4cccc(Cl)c4)C(F)(F)F)CC3)CC2)ccc1C(=O)N(C)C` [Example 2-159, 4-[4-({1-[(2R)-2-(3-chloro-phenyl)-3,3,3-trifluoro-2-hydroxy-propanoyl]piperidin-4-yl}methyl)piperidin-1-yl]-N,N,2-trimethyl-benzamide], the Emax in experiment [1] (setting [3]) came out at 65%; in experiment [2] (setting [5]) it was 22%. Moreover, the EC50 in experiment [1] (setting [4]) is 21 nM; in experiment [2] (setting [6]), 156 nM.
The like results for `CN(C)CCN(C)C(=O)c1ccc(N2CCC(CC3CCN(C(=O)[C@](O)(c4ccccc4)C(F)(F)F)CC3)CC2)cc1Cl` [Example 4-13, 2-chloro-N-[2-(dimethylamino)ethyl]-N-methyl-4-[4-({1-[(2R)-3,3,3-trifluoro-2-hydroxy-2-phenylpropanoyl]piperidin-4-yl}methyl)piperidin-1-yl]benzamide] were, in that order, 62%, 30%, 21 nM and 678 nM.
`COc1cccc(CS(=O)(=O)N2CC(CC3CCN(c4ccc(C(=O)N(C)C)c(Cl)n4)CC3)C2)c1` [Example 14-3, 2-chloro-6-[4({1-[(3-methoxybenzyl)-sulfonyl]azetidin-3-yl}methyl)piperidin-1-yl]-N,N-dimethyl-pyridine-3-carboxamide]: the EC50 in experiment [1] (setting [8]) amounted to 1510 nM. Also, the Emax came out at 48% in experiment [1] (setting [9]) and 5% in experiment [2] (setting [11]). Also, the “LXR alpha IP (Inflection Point, potency)” value in experiment [2] (setting [10]) is “NO IP”.
For the compound `CN(C)C(=O)c1ccc(N2CCC(CC3CN(S(=O)(=O)c4ccccc4)C3)CC2)nc1Cl` [Example 14-1, 2-chloro-N,N-dimethyl-6-(4-((1-(phenylsulfonyl)azetidin-3-yl)methyl)piperidin-1-yl)nicotinamide], the EC50 was determined as 44 nM in experiment [1] (setting [8]) and 3430 nM in experiment [2] (co-activator recruitment to GST-LXRalpha LBD, TR-FRET, read-out: LXR alpha IP (Inflection Point, potency)). Also, the Emax was 111% in experiment [1] (read-out: LXR beta Activity @ max dose) and 55% in experiment [2] (read-out: LXR alpha Activity @ max dose).
For the compound `COc1cc(F)cc([C@@](O)(C(=O)N2CCC(C)(CC3CCN(c4ccc(C(=O)N(C)C)c(Cl)c4)CC3)CC2)C(F)(F)F)c1` [Example 2-49, 2-chloro-N,N-dimethyl-4-[4-({4-methyl-1-[(2R)-3,3,3-trifluoro-2-(3-fluoro-5-methoxyphenyl)-2-hydroxy-propanoyl]piperidin-4-yl}methyl)piperidin-1-yl]benzamide], the Emax in experiment [1] (setting [3]) is 59%; in experiment [2] (setting [5]) it was 5%. In addition, the EC50 in experiment [1] (setting [4]) stood at 6 nM. In experiment [2] (setting [7]), the “LXR alpha IP (nM)” value is recorded as “NO IP”.
On to `COc1cccc(CS(=O)(=O)N2CC(CC3CCN(c4ccc(C(=O)N(C)C)c(Cl)c4)CC3)C2)c1` [Example 13-3, 2-chloro-4-[4-({1-[(3-methoxybenzyl)-sulfonyl]azetidin-3-yl}methyl)piperidin-1-yl]-N,N-dimethyl-benzamide], for which the EC50 in experiment [1] (setting [8]) came to 604 nM. In addition, the Emax in experiment [1] (setting [9]) came to 26%; in experiment [2] (setting [11]), 0%. Besides, the “LXR alpha IP (Inflection Point, potency)” value in experiment [2] (setting [10]) is reported as “NO IP”.
